Measured values as given in PMC4394430, “Licochalcone A, a Polyphenol Present in Licorice, Suppresses UV-Induced COX-2 Expression by Targeting PI3K, MEK1, and B-Raf” (International Journal of Molecular Sciences, 2015).

What was measured:
[1] = target: T1, B-Raf (Homo sapiens, UniProt P15056); settings: 10 and 100 uM ATP; 4 C; competitive with LicoA
T1 construct: gene BRAF

[2] = target: T1, B-Raf; test: […] kinase assay, inactive MEK1 and MBP peptide; type: biochemical; settings: 5 and 10 uM LicoA; pH 7.5; 30 C; coupled readout; ATP-competitive
[3] = target: T1, B-Raf; test: LicoA-Sepharose 4B pull-down, immunoblot; type: binding; settings: pH 7.5; 4 C; immobilised LicoA; blocked by ATP (ATP-competitive)
[4] = target: T2, MEK1 (Homo sapiens, UniProt Q02750); test: LicoA-Sepharose 4B pull-down, immunoblot; type: binding; settings: pH 7.5; 4 C; immobilised LicoA; not blocked by ATP (non-competitive)
T2 construct: gene MAP2K1
T2 sequence (Q02750 whole entry): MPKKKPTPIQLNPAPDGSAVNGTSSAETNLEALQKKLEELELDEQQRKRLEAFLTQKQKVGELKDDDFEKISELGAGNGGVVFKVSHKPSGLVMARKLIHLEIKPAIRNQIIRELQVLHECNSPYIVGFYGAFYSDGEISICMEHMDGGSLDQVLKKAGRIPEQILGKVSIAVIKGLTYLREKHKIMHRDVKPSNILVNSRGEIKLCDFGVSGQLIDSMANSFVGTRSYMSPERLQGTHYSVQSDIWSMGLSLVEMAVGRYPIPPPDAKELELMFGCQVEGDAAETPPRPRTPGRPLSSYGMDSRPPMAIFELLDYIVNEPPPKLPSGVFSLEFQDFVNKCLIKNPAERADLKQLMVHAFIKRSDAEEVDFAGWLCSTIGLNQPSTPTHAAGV

T1 sequence (P15056 2-766): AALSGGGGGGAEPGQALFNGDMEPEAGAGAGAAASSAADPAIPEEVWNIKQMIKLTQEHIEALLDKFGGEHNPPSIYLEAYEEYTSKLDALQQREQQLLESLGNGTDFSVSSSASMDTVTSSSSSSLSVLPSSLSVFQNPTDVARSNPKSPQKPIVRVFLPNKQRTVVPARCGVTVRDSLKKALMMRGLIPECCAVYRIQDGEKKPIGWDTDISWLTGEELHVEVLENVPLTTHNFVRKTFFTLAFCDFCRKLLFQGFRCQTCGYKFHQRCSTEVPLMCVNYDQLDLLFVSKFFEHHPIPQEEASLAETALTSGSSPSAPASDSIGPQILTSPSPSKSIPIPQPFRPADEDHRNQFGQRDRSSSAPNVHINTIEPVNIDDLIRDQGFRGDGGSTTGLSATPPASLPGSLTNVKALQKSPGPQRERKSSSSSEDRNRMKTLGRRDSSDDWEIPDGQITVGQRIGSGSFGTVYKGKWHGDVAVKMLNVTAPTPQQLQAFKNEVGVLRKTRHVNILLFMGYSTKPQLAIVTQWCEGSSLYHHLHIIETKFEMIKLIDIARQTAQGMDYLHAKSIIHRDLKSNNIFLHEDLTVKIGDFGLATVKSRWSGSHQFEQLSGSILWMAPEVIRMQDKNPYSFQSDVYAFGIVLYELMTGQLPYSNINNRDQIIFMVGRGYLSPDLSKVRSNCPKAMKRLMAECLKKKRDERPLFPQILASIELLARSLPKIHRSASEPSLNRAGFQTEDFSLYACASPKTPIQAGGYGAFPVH

SMILES | ATP competition with LicoA-Sepharose 4B pull-down [1] | % inhibition [2] | LicoA-Sepharose 4B pull-down, immunoblot [3] | LicoA-Sepharose 4B pull-down, immunoblot [4]
Nc1ncnc2c1ncn2[C@@H]1O[C@H](COP(=O)(O)OP(=O)(O)OP(=O)(O)O)[C@@H](O)[C@H]1O [ATP] | ATP treatment blocked the binding ability of LicoA with PI3K (Figure 4B) and B-Raf (Figure 4F) |  |  | 
C=CC(C)(C)c1cc(/C=C/C(=O)c2ccc(O)cc2)c(OC)cc1O [LicoA, Licochalcone A] |  | strongly blocked B-Raf (Figure 3C) activity in a dose-dependent manner | LicoA binds with PI3K and B-Raf in competition with ATP | LicoA binds with MEK1 in an ATP non-competitive manner
